In patent publication US20120214736A1, “COMPOSITIONS AND METHODS FOR THE MODULATION OF JNK PROTEINS” (Isis Pharmaceuticals, Inc., priority 2006, published 2012):
e = 2'-O-(2-methoxyethyl) (MOE); d = 2'-deoxy (DNA)

How the values were obtained:
Type in all cases: cell-based
[1] = test system: human JNK2 mRNA; test: Northern analysis, human JNK2 mRNA in HuVEC cells (time course); conditions: 100 nM; 0-72 hours
Experimental: The human umbilical vein endothilial cell line HuVEC was obtained from Clonetics (Clonetics Corporation Walkersville, Md.). HuVEC cells were routinely cultured in EBM (Clonetics Corporation Walkersville, Md.) supplemented with SingleQuots supplements (Clonetics Corporation, Walkersville, Md.). […] Cells were seeded into 100 mm dishes and incubated overnight at 37° C./5% CO2. (Falcon-Primaria #3872).
(§1) When cells reached 70% confluency, they were treated with oligonucleotide. For cells grown in 10 cm dishes, cells were washed once with 5 ml PBS and then treated with 5 ml of OPTI-MEM-1 containing 3 ul LIPOFECTIN (Invitrogen Corporation, Carlsbad, Calif.)/100 nM oligonucleotide/ml OPTI-MEM-1. For other oligonucleotide concentrations the oligonucleotide/Lipofectin ration was held constant. […] Cells were harvested 16-24 hours after oligonucleotide treatment.
In accordance with the present invention, HuVEC cells were treated with 100 nM ISIS 101759 or the control oligonucleotide and mRNA levels of human JNK2 were monitored over a time-course of 0-72 hours and quantitated by Northern analysis.

[2] = test system: human JNK2 mRNA; test: Northern analysis, human JNK2 mRNA in Jurkat cells (electroporation, dose response); conditions: 1, 5 or 20 uM
Experimental: Jurkat cells were routinely cultured in RPMI Medium 1640 (Gibco/Life Technologies, Gaithersburg, Md.) supplemented with 20% fetal calf serum (Gibco/Life Technologies, Gaithersburg, Md.). Cells were routinely passaged by aspirating media that contained excess cells and replenishing with new media.
For electroporation, cells were diluted to 28×10^6 cells/mL and placed into 1 mm electroporation cuvettes. Electroporation is performed by treating with 1-20 μM oligonucleotide, at 160 Volts for 6 msec. The entire electroporated samples are then placed into 5 mL of 10% FBS/RPMI Medium 1640 in 100 mm plates. Plates are then left overnight at 37° C./5% CO2.
Each sample is then transferred to 15 mL conical tubes and spun down at 1200 rpm for 5 minutes followed by aspiration of the supernatant. Cells are then suspended in 5 mL PBS followed by a second centrifugation at 1200 rpm for 5 minutes followed by aspiration of the supernatant. Cells are then washed and lysed. Following the lysis step, total cellular RNA is then isolated using the RNEASY kit (Qiagen, Santa Clarita, Calif.) as described in other examples herein.
In accordance with the present invention, Jurkat cells were treated by electroporation with 1, 5 or 20 uM ISIS 101759 or the control oligonucleotide and mRNA levels of human JNK2 were quantitated by Northern analysis.

[3] = test system: human JNK2 mRNA; test: Northern analysis, human JNK2 mRNA in HeLa cells (dose response); conditions: 10, 50 or 200 nM
Experimental: The human cervix epithelial adenocarcinoma cell line HeLa was obtained from the American Type Culture Collection (Manassas, Va.). HeLa cells were routinely cultured in Minimum essential medium (Eagle) with 2 mM L-glutamine and Earle's BSS adjusted to contain 1.5 g/L sodium bicarbonate, 0.1 mM non-essential amino acids, and 1.0 mM sodium pyruvate, 90%; fetal bovine serum, 10% at a temperature of 37° C. Cells were seeded into 100 mm dishes and incubated overnight at 37° C./5% CO2
as §1
In accordance with the present invention, HeLa cells were treated with 10, 50 or 200 nM ISIS 101759 or the control oligonucleotide and mRNA levels of human JNK2 were quantitated by Northern analysis.

## GsCsTsCsAsGsTsGsGsAsCsAsTsGsGsAsTsGsAsG (GCTCAGTGGACATGGATGAG; sugars from the 5' end e5 d10 e5, all phosphorothioate, methylation of C not given here) [ISIS 101759]
[1]
  expression of human JNK2 in HuVEC cells: capable of reducing the expression of human JNK2
[2]
  expression of human JNK2 in Jurkat cells: capable of reducing the expression of human JNK2 in human Jurkat cells in a dose-dependent manner
[3]
  expression of human JNK2 in HeLa cells: capable of reducing the expression of human JNK2 in human HeLa cells in a dose-dependent manner
